Source: article PMC10014601, “The cyclic peptide G4CP2 enables the modulation of galactose metabolism in yeast by interfering with GAL4 transcriptional activity” (Frontiers in Molecular Biosciences, 2023)
Like-named read-outs stand apart in the source and are kept apart here. Where a SMILES comes first, the peptide text is derived from it. [ ]: non-standard residue; d: D form. βAla = NCCC(=O)O

Legend:
[1] = PAMPA-BBB literature value, cited from earlier work
Excerpt: Supplement Table3.XLSX, sheet "Primer list" | column: Pe,lit

[2] = PAMPA-BBB passive membrane permeability; details: for Papp at 18 h / Papp: pH 7.4
Method: A 96-well acceptor microplate (PTFE, Millipore) was prepared by filled each well with 300 μL of PBS/DMSO (95:5, pH = 7.4), while the donor microplate artificial membrane (PVDF membrane, pore size […], Millipore) was carefully coated with 5 μL of PBL dissolved in dodecane ([…]). Each compound was dissolved in DMSO, diluted with PBS/DMSO (95:5, pH = 7.4) to a final concentration of 40–100 μM in the donor well, filtered with a Millex filter, and applied to the donor microplate wells (200 μL). Next, the donor plate was carefully placed on top of the acceptor plate, thereby bringing the artificial membrane in contact with the buffer solution underneath. The donor well was covered with a lid, and the whole system was left undisturbed overnight (18 h) at 25°C in a container sealed with damp paper towels to prevent evaporation. After incubation, the donor microplate was carefully removed, and UV-vis spectroscopy was used to determine the amounts of the tested compounds in the acceptor and donor microplate wells, respectively. Each sample was evaluated at five wavelengths in four wells during three separate runs; accordingly, all data are presented as mean values with relevant standard deviation. The permeability values (Pe,exp, cm/s) were calculated according to the following expression: Pe,exp = {−VdVa/[(Vd + Va)At]ln–1—da/deq}, in which Vd and Va represent the volumes of the donor and the acceptor wells, respectively, A is the surface of the artificial membrane, t is the permeation time, whilst da and deq are the absorbance measured in the acceptor well and the theoretical equilibrium absorbance value, respectively. After the PAMPA-BBB test for all compounds was completed, the integrity of the lipid membrane was evaluated based on the transport of Lucifer Yellow (Sigma-Aldrich)—a fluorescent molecule with very limited membrane permeability rejected by a uniform and integral lipid membrane performed according to the Millipore protocol lit. n. PC1545EN00 (https://www.sigmaaldrich.com/technical-documents/protocols/biology/membrane-integrity-test-for-lipid-pampa-artificial-membranes.html).

[3] = target: T1, GAL4 (Saccharomyces cerevisiae, UniProt P04386); assay: pGAL1::YFP reporter fluorescence (YFP/OD600), BY4741 treated with chemically synthesized peptides (feeding); assay type: cell-based; details: 100 µM peptide; 1.00 and 10.00 Gal/Glu ratios; 15.5 h
T1 construct: endogenous in cells; host or cells: S. cerevisiae BY4741 (S288C derivative) with integrated GAL1p-YFP cassette
Method: The fluorescence signal of BY4741 pGAL1::YFP reporter strain was measured using a Varioskan LUX multimode microplate reader (ThermoFisher Scientific). Overnight cultures were pelleted, washed twice in water and OD600 normalized for the different cultures. An equal volume of normalized cultures was pipetted in each well of a 96-well plate containing different galactose/glucose (Gal/Glu) ratios. When treating the cells with chemically synthesized G4CP2, a 10 mM stock solution (100% DMSO) was diluted to a working concentration of 100 µM in each well designated for treatment. Fluorescence and OD600 measurements were performed by incubating plates at 28°C, shaking 2 min at 180 rpm, before each measurement.
To test the effects of exogenous administration of chemically synthetized G4CP2 on pGAL1::YFP biosensor, a random-selected control peptide (CP11) was used. […] G4CP2 and CP11 were used at 100 µM to treat BY4741 pGAL1::YFP yeast cells grown in 96-well plates under 1.00 and 10.00 Gal/Glu ratios. YFP/OD600 values were again recorded for 15.5 h (Figure 4D).

[4] = marked a (or a,b; then also Kerns et al., 2004), ref Di et al., 2003
[5] = marked b, ref Kerns et al., 2004

**Q.** With `CN1C(C(=O)Nc2ccccn2)=C(O)c2ccccc2S1(=O)=O` [Piroxicam] as the compound, how does the “Pe,lit” value [1, 4] read?
**A.** 2.5a 10-6 cm/s

**Q.** With `Cn1c(=O)c2c(ncn2C)n(C)c1=O` [Caffeine] as the compound, how does the “Pe,exp” value ([2]; PAMPA-BBB validation, porcine brain lipid in dodecane (20 mg/L), PBS/DMSO 95:5 pH 7.4, 40–100 μM donor, 18 h, 25°C, UV-vis, mean ± SD, four wells, three runs) read?
**A.** 1.7 ± 0.2 10-6 cm/s

**Q.** With `CCN(CC)CCCC(C)Nc1ccnc2cc(Cl)ccc12` (stereo not shown) [Chloroquine] as the compound, how does the Papp at 18 h ([2]; pig, PAMPA) read?
**A.** 2.4 ± 0.1 ×10⁻⁶ cm/s

**Q.** With `CC(=O)[C@H]1CC[C@H]2[C@@H]3CCC4=CC(=O)CC[C@]4(C)[C@H]3CC[C@]12C` [Progesterone] as the compound, how does the Papp at 18 h ([2]; pig, PAMPA) read?
**A.** 10.9 ± 0.7 ×10⁻⁶ cm/s

**Q.** For `OCCN(CCO)c1nc(N2CCCCC2)c2nc(N(CCO)CCO)nc(N3CCCCC3)c2n1` [Dipyridamole], which “Pe,lit” value [1, 5] is on record?
**A.** 3.5b 10-6 cm/s

**Q.** What about the Papp at 18 h ([2]; pig, PAMPA) of the same compound?
**A.** 3.8 ± 0.4 ×10⁻⁶ cm/s

**Q.** For `Cc1nnc2n1-c1ccc(Cl)cc1C(c1ccccc1)=NC2` [Alprazolam], which “Pe,lit” value [1, 4] is on record?
**A.** 5.4a 10-6 cm/s

**Q.** What about the Papp ([2]; pig, PAMPA) of the same compound?
**A.** 5.1 ± 0.4 ×10⁻⁶ cm/s

**Q.** With `CC(C)[C@H]1C(=O)O[C@H](C(C)C)C(=O)N(C)[C@@H](C(C)C)C(=O)O[C@H](C(C)C)C(=O)N(C)[C@@H](C(C)C)C(=O)O[C@H](C(C)C)C(=O)N1C` [EnB] as the compound, how does the Papp at 18 h ([2]; PAMPA) read?
**A.** 8.3 ± 0.7 ×10⁻⁶ cm/s

**Q.** With `COc1cc(Cc2cnc(N)nc2N)cc(OC)c1OC` [Trimethoprim] as the compound, how does the “Pe,lit” value [1, 5] read?
**A.** 2.2b 10-6 cm/s

**Q.** What about the Papp at 18 h ([2]; pig, PAMPA) of the same compound?
**A.** 2.5 ± 0.2 ×10⁻⁶ cm/s

**Q.** For `CCn1cc(C(=O)O)c(=O)c2cc(F)c(N3CCNCC3)nc21` [Enoxacin], which Papp at 18 h ([2]; pig, PAMPA) is on record?
**A.** 0.98 ± 0.3 ×10⁻⁶ cm/s

**Q.** Which Papp at 18 h ([2]; pig, PAMPA) does the source give for `CCn1cc(C(=O)O)c(=O)c2cc(F)c(N3CCNC(C)C3)c(F)c21` (stereo not shown) [Lomefloxacin] here?
**A.** 1.4 ± 0.1 ×10⁻⁶ cm/s

**Q.** For `CCn1cc(C(=O)O)c(=O)c2cc(F)c(N3CCNCC3)cc21` [Norfloxacin], which Papp at 18 h ([2]; pig, PAMPA) is on record?
**A.** 0.15 ± 0.01 ×10⁻⁶ cm/s

**Q.** Which results are given for `CSCC[C@@H]1NC(=O)[C@H](CC(=O)O)NC(=O)[C@H](Cc2ccccc2)NC(=O)[C@H](Cc2ccccc2)NC(=O)[C@H](Cc2ccc(O)cc2)NC(=O)[C@H](CCCNC(=N)N)NC(=O)CCNC(=O)[C@H](Cc2ccc(O)cc2)NC(=O)[C@H](Cc2c[nH]c3ccccc23)NC1=O` [G4CP2] (cyclo(DMWY[βAla]RYFF))?
**A.** YFP fluorescence signal over time (YFP/OD600) [3]: strongly attenuated; passive permeability classification ([2]; PAMPA): moderate-to-good; Papp ([2]; PAMPA): 3.3 ± 0.4 ×10⁻⁶ cm/s

**Q.** Which “Pe,lit” value [1, 4] does the source give for `O=C1Nc2ccc(Cl)cc2C(c2ccccc2)=NC1O` (stereo not shown) [Oxazepam] here?
**A.** 10a 10-6 cm/s

**Q.** With `CN(C)CCCN1c2ccccc2Sc2ccc(Cl)cc21` [Chlorpromazine] as the compound, how does the Papp at 18 h ([2]; pig, PAMPA) read?
**A.** 6.8 ± 0.3 ×10⁻⁶ cm/s

**Q.** For `CN1C(=O)CN=C(c2ccccc2)c2cc(Cl)ccc21` [Diazepam], which Papp ([2]; pig, PAMPA) is on record?
**A.** 13.7 ± 0.8 ×10⁻⁶ cm/s

**Q.** Which Papp at 18 h ([2]; pig, PAMPA) does the source give for `CC(C)NCC(O)COc1ccc(CC(N)=O)cc1` (stereo not shown) [Atenolol] here?
**A.** 0.74 ± 0.04 ×10⁻⁶ cm/s

**Q.** With `C/C=C/C[C@@H](C)[C@@H](O)[C@H]1C(=O)N[C@@H](C(C)C)C(=O)N(C)CC(=O)N(C)[C@@H](CC(C)C)C(=O)N[C@@H](C(C)C)C(=O)N(C)[C@@H](CC(C)C)C(=O)N[C@@H](C)C(=O)N[C@H](C)C(=O)N(C)[C@@H](CC(C)C)C(=O)N(C)[C@@H](CC(C)C)C(=O)N(C)[C@@H](C(C)C)C(=O)N1C` [CSD] as the compound, how does the Papp ([2]; PAMPA) read?
**A.** 0.93 ± 0.5 ×10⁻⁶ cm/s
